{"source": "patent US6710090B2", "about": "“Inhibitory or blocking agents of molecular generating and/or inducing functions” (priority 1994, dated 2004)", "key": {"[1]": {"system": "atypical mycobacteria (Mycobacterium Rapid Grower)", "assay": "Anti-microbacterial effect on acid-fast bacteria", "assay_type": "cell-based"}, "[2]": {"biological_target": "T1, Recombinant Taq DNA Polymerase (Thermus aquaticus, UniProt P19821)", "T1 construct": "purchased TaKaRa Shuzo Co., Otsu city R001A", "assay": "PCR with polymerase enzymes treated with Yoshixol", "assay_type": "biochemical", "procedure": "Effect of Yoshixol on PCR was investigated by DNA template which was extracted from snake (blue-green snake, captured at Matsumoto city, Nagano). The new synthesized dimer of (SEQ ID NO: 2) (5′>CTTCGGGCTTCGGG<3′) with 7 base-pair alignment (CTTCGGG) above-mentioned was used as a primer. PCR reaction was done by use of DNA thermal cycler (PJ-2000) made in PERKIN ELMER CETUS company. The following six combinations were prepared for the test samples. Those are two kinds of samples which consist of 5 μl of primer (100 pico mole/μl) with 5 μl of Yoshixol (P+) and without Yoshixol (P−). In addition, two kinds of samples which consist of 5 μl. of snake DNA (500 ng/μl) with 5 μl of Yoshixol (D+) and without Yoshixol (D−). And, additional two kinds of samples which consist of 1 μl of polymerase enzymes (Recombinant Taq DNA Polymerase, No. R001A, TaKaRa Shuzo Co., Otsu city: 5 unit/pd) with 1 μl of Yoshixol (Pm+) and without Yoshixol (Pm−). After each sample was placed for 10 minutes at room temperature, each sample was diluted in distilled water. And, it is adjusted in a primer solution of 10 picomole/μl, DNA solution of 50 ng/μl and a polymerase enzymes solution of 0.5 unit/μl. Then, the following combinations were prepared. […] In each combination, amount of cDNA synthesis was amplified by a PCR method and was measured. […]"}, "[3]": {"system": "human defibrinized serum, bovine albumin, human fibrinogen, myoglobin, anti-A blood type serum and anti-B blood type serum", "assay": "Primary structure of proteins, electrophoretic analysis of non-SDS wide page", "assay_type": "biochemical", "settings": "1 ml protein solutions, Yoshixol 4 μl, heated denaturation", "procedure": "Changes in molecular weight composition of the following macromolecular proteins (1 mole solution) before and after treatment with Yoshixol (4 μl) were investigated after heated denaturation by electrophoretic analysis of non-SDS wide page. The used macromolecules proteins solutions of 1 ml are human defibrinized serum, bovine albumin, human fibrinogen, myoglobin, anti-A blood type serum and anti-B blood type serum (Green Cross Co.). Even after treatment with Yoshixol, distribution of molecular weights on electrophoretic analysis was identical to that of the macromolecules proteins which is not treated (referred FIG. 7)."}, "[4]": {"system": "rejected reaction on heterogeneous skin implantation", "assay": "Heterogeneous skin implantation, donor skin pretreated with Yoshixol solution", "assay_type": "in vivo, rabbit and dog", "source_text": "Changes in transplanted skin for 3 months were observed by macroscopically and microscopically, when a piece of skin with entire layer (diameter 3 centimeter meter) at a region of the back of rabbit was transplanted to the region of the back of adult mongrel dog as the entire layer transplantation, and when a piece of skin with entire layer (diameter 3 centimeter meter) at a region of the back of adult mongrel dog was transplanted to the region of the back of rabbit as the entire layer transplantation. Firstly, each piece of skin from rabbit or dog was treated with 5 ml of physiological saline with 10 μl of the test solution for 2 minutes so that each skin piece was transplanted to each recipient by the surgical suture. Two kinds of the test solution were prepared for the above treatment; as control solution, basal solution consists of 2 ml of polyoxyethylene (20) sorbitan monoolate 1 (Wakou Jyunyaku Co.) which is identical to Tween 80 (ICI Ltd.) and 88 ml of physiological saline, and as treated solution, 10 ml of Yoshixol was added in the basal solution. And, 10 μl of Yoshixol was treated directly on the transplanted wound for 3 days after implantation. […] Then, implantated wound of the recipient was cured with a self regenerated skin of each recipient after 3 months. On the other hand, when a piece of transplanted skin is dipped in the Yoshixol solution, the treated skin became to be soft and increases in it's thickness. And, a suture procedure with surgical needle was easily done. […] So that an inflammatory tissue reaction was not also found after 1 month. […] Simultaneously with the above, Yoshixol can inhibit complications of infections on the donor tissues or organs, and can improve an implantation effect. Moreover, by using an entire layer (diameter 3 centimeter meter) of rabbit skin, changes in a piece of the transplanted skin which was sutured to the back of the dog as the recipient were investigated over 3 months after the implantation. […] An outer layer of the transplanted skin was faded 3 month after the implantation likely as to strip a thin membrane."}, "Candida albicans": {"system": "Candida albicans", "assay": "Antifungal effect", "assay_type": "cell-based", "settings": "for CFU: 2 μl per 1 ml of culture medium, 10^6 CFU/ml, Sabouraud broth"}, "[5]": {"settings": "50 μl in the whole space of the schale, indirect contact, 24 hours, 37° C."}}}
{"compound": "C=C1CC(C)(C)C=CC1=O", "note": "[Yoshixol, 4,4-dimethyl-6-methylene-2-cyclohexen-1-one]", "values": [{"measurement": "proliferation with evaporating component of Yoshixol", "setting": "[1]; [5]", "result": "did not occur"}, {"measurement": "diameter of inhibition zone of proliferation", "setting": "[1]; at 2 μl", "result": 22, "unit": "mm"}, {"measurement": "dosage at which formation of inhibition zone of proliferation occurred", "setting": "[1]; brain-heart infusion agar", "result": "0.2 μl of Yoshixol per 1 ml of the culture medium"}, {"measurement": "PCR bounds, group P−, D−, Pm+", "setting": "[2]; 1 μl polymerase with 1 μl of Yoshixol, untreated 4 bounds between 0.5 and 1.2 kb", "result": "only one bound at lowest molecular weight within 4 bounds was appeared"}, {"measurement": "PCR bounds, group P−, D−, Pm+A", "setting": "[2]; concentration of Yoshixol for the polymerase increased to 100 times", "result": "any kind of bounds did not observe"}, {"measurement": "distribution of molecular weights on electrophoretic analysis versus not treated", "setting": "[3]", "result": "identical"}, {"measurement": "desquamation and deciduation of transplanted skin", "setting": "[4]; skin dipped 2 minutes in Yoshixol solution, 10 μl on wound for 3 days, 2 weeks after implantation", "result": "did not show a desquamation and deciduation"}, {"measurement": "inflammation reaction of transplanted skin", "setting": "[4]; skin dipped in Yoshixol solution, 10 μl on wound for 3 days", "result": "inhibited"}, {"measurement": "transplanted wound", "setting": "[4]; skin dipped in Yoshixol solution, after 1 month", "result": "cured to a level which could not find a boundary with a skin of recipient"}, {"measurement": "CFU", "setting": "Candida albicans; after 1 hour", "result": "zero"}, {"measurement": "CFU", "setting": "Candida albicans; after 3 hours incubated", "result": "zero"}, {"measurement": "proliferation with evaporating component of Yoshixol", "setting": "Candida albicans; [5]", "result": "did not occur"}]}
